Laboratory results reported in patent EP0311632B1, “SURFACE ACTIVE LACTAMS” (priority 1986, dated 1988).
Like-named read-outs stand apart in the source and are kept apart here. Marks after values point to notes of the source that are not given here.

Tests used:
[1] = Cloud point of 10% aqueous solutions; format: physicochemical; details: 10% aqueous solution
From the text: The higher the cloud point, the more soluble, i.e. hydrated, the surfactant.

[2] = Surface tension of aqueous solutions (Fisher Surface Tensiomat, ring tensiometer); format: physicochemical; details: 25°C.
Experimental: Surface tension measurements in triplicate were made for each of the N-alkylpyrrolidone species listed below in Table 1, using a Fisher Surface Tensiomat (Model #21, Der Nouy Ring Tensionometer). Each experiment was carried out as follows.
Distilled water solutions at concentrations noted in Table 1 were prepared for each of the following surfactants in 100 ml glass flasks. The solutions were stirred for about 15 minutes until homogeneous solutions were obtained. The surface tensions of these solutions were then measured.

[3] = Surface activity parameters calculated from surface tension measurements (Gibbs adsorption equation); format: physicochemical; details: for am: area of the molecule at the interface; for CMC: critical micelle concentration, calculated from surface tension data; for pC-20: negative logarithm of surfactant concentration required to lower surface tension by 20 dynes/cm
Experimental: The critical micelle concentration (CMC), the surface concentration at the liquid-air interface ( ? ), the area of the test molecule at the interface (am) and the effectiveness of adsorption at the interface (pC-20) were determined on the above surface tension data reported in Example XXI, Table 1.
More specifically, the CMC of the N-(n alkyl) pyrrolidones tested show a minimum (4.7 x 10⁻⁵) at the C₁₂ chain length. Using the empirical equation for n-lauryl (C₁₂) alcohol ethoxylate, log CCMC (= A)^1 (+ B)^1 n [formula] where A¹ = 4.4, B¹ = 0.046, and n = number of ethylene oxide at 23°C., the pyrrolidone ring would be expected to behave as 2 ethylene oxide units. […] The hydrophilic-lipophilic balance (HLB) of N-n-dodecyl pyrrolidone, based on the assumption that the pyrrolidone ring simulates 2-6 ethylene oxide units is 6.5 - 11 using the equation % ethylene oxide/5 - HLB.
The surface concentration ? , in moles per cm indicates the maximum surface concentration of surfactant, i.e. at equilibrium above the CMC, and is obtained by an estimation of a constant d γ /dc* from the surface tension vs. concentration. […] The mono disperse nature of the hydrophobe and hydrophile is believed to contribute to high surface concentrations by maximizing enthropy of packing. * d γ/dc = the change in surface tension with respect to the change in surfactant concentration.

[4] = Solubility of N-alkyl pyrrolidones, 10% by weight in various liquids; format: physicochemical; design: key to 10% PRODUCT SOLUBILITY: I: insoluble; PS: partially soluble (cloudy translucent); S: soluble, clear; *: Soluble with slight haze; **: Very slight precipitation; details: for 10% PRODUCT SOLUBILITY: 25°C ± 1°C; for solubility in water: room temperature, 10% concentration, in words
Experimental: Separate 10% by weight solutions of N-alkyl-2-pyrrolidone in the following liquids were made up in 50 ml glass beakers and the solubilities at about 25°C. were noted and reported in following Table 9.

[5] = Viscosity (Brookfield Viscometer, LVT Model); format: physicochemical
Experimental: The viscosities in cps of the following surfactants at various concentration in distilled water were measured at about 25°C. using a Brookfield Viscometer (LVT Model).
The above viscosity of alkyl pyrrolidones and their aqueous solutions were obtained usinq a #2 spindle at a speed of 30 rpm, and a #2 spindle at a speed of 60 rpm respectively.

[6] = Titration of 10% dispersions with HCl to a clear solution (protonation); format: physicochemical; details: clear solution after HCl titration
From the text: Ten percent dispersions of the C₈ and C₁₀ pyrrolidones were titrated to a clear solution using HCl.
To obtain a rough figure for the protonation equilibrium constant, the equilibrium [octyl pyrrolidone] was taken at 5 x 10⁻³m.

[7] = pH of product, 10% in 50/50 isopropyl alcohol-water; format: physicochemical
From the text: Into a stainless steel autoclave was introduced n-octylamine (2342 g) and butyrolactone (1704 g) in a mole ratio of about 1:1.1.

[8] = Density, heat of vaporization and solubility parameter; format: physicochemical
[9] = value starred: literature value; cited from earlier work
[10] = 0.001% solution in distilled water
[11] = 0.01% solution in distilled water
[12] = 0.1% solution in distilled water
[13] = 100%, about 25°C., #2 spindle 30 rpm
[14] = product as such, stated in description and preparation examples
[15] = 0.0001% solution in distilled water
[16] = 2% in distilled water, about 25°C., #2 spindle 60 rpm
[17] = 4% in distilled water, about 25°C., #2 spindle 60 rpm
[18] = 6% in distilled water, about 25°C., #2 spindle 60 rpm
[19] = 8% in distilled water, about 25°C., #2 spindle 60 rpm
[20] = 10% in distilled water, about 25°C., #2 spindle 60 rpm

SMILES	Cloud Point [1]	Surface Tension of Aqueous Solutions [2, 10] [dynes/cm]	Surface Tension of Aqueous Solutions [2, 11] [dynes/cm]	Surface Tension of Aqueous Solutions [2, 12] [dynes/cm]	am [3]	CMC [3] [µM]	pC-20 [3]	10% PRODUCT SOLUBILITY ([4]; Acetone)	10% PRODUCT SOLUBILITY ([4]; Ethanol)	10% PRODUCT SOLUBILITY ([4]; Heptane)	10% PRODUCT SOLUBILITY ([4]; Paraffin Oil)	10% PRODUCT SOLUBILITY ([4]; Perchloroethylene)	10% PRODUCT SOLUBILITY ([4]; Stoddard Solvent)	10% PRODUCT SOLUBILITY ([4]; Water)	10% PRODUCT SOLUBILITY ([4]; Xylene)	solubility in water [4]	VISCOSITY [5, 13] [CPS]	VISCOSITY [5, 14] [cps]	pH [7]	other results
O=C1CCCN1C1CCCCC1 [N-cyclohexyl pyrrolidone, reference compound]	55 °C	–	–	–	–	–	–	–	–	–	–	–	–	–	–	–	–	–	–	–
CCCCCCCCCCN1CCCC1=O [N-decyl-2-pyrrolidone]	19 °C	51.0	27.8	27.5	36.1 (Å)^2	440	4.51	S	S	S	S	S	S	PS*	S	slightly soluble	12.0	12	5.4	Surface Tension of Aqueous Solutions ([2]; 1.0% solution in distilled water): 27.6 dynes/cm; Solution pH [6]: <0.1
CCCCCCCCCCCCN1CCCC1=O [N-dodecyl-2-pyrrolidone]	15-19 °C	29.9	27.6	26.7	36.9 (Å)^2	47	5.27	S	S	S	PS	S	PS	S*	S	completely soluble	17.0	17	7.3	Cloud Point ([1]; listed as dodecyl): 15-19 °C; Cloud Point ([1]; listed as dodecyl pyrrolidone): 31-32 °C; Surface Tension of Aqueous Solutions [2, 15]: 55.4 dynes/cm; VISCOSITY [5, 16]: 6.5 CPS; VISCOSITY [5, 17]: 7.5 CPS; VISCOSITY [5, 18]: 12.5 CPS; VISCOSITY [5, 19]: 16.0 CPS; VISCOSITY [5, 20]: 20.0 CPS
CCCCCCCCN1CCCC1=O [N-octyl-2-pyrrolidone]	< 0 °C	68.4	54.25	30.4	39.5 (Å)^2	–	3.20	S	S	S	S	S	S**	I	S	insoluble	8.0	8	6.5	Solution pH [6]: 0.22
CCCCCCCCCCCCCCN1CCCC1=O [N-tetradecyl-2-pyrrolidone]	33 °C	30.4	26.5	26.4	53.6 (Å)^2	57	6.25	S	S	S	S	S	S	S*	S	completely soluble	20.0	2	5.9	Cloud Point ([1]; listed as tetradecyl): 33 °C; Cloud Point ([1]; listed as tetradecyl pyrrolidone): 33-34 °C; Surface Tension of Aqueous Solutions [2, 15]: 47.5 dynes/cm; Γm ([3]; surface concentration at the liquid-air interface): 3.1 10^-10 mol/cm²; VISCOSITY [5, 16]: 24.5 CPS; VISCOSITY [5, 17]: 66.0 CPS; VISCOSITY [5, 18]: 96.0 CPS; VISCOSITY [5, 19]: 100.0 CPS; VISCOSITY [5, 20]: 145.0 CPS; Heat of Vaporizn. [8]: 19.7 k cal/mole; Solubility Parameter (δ) [8]: 7.8
CCCCCCCCCCCCCCCCN1CCCC1=O [hexadecyl, N-hexadecyl-2-pyrrolidone]	insoluble	–	–	–	–	–	–	–	–	–	–	–	–	–	–	–	–	–	–	–
CCCCCCCCCCCC[N+](C)(C)[O-] [lauryl dimethyl amine oxide, reference compound]	–	–	–	–	59.3 (Å)^2	–	5.23	–	–	–	–	–	–	–	–	–	–	–	–	CMC [9]: 2.1 x 10^-3* ml^-1
